Experimental findings from patent publication US11723886B2, “Targeting ocular diseases with novel APE1/Ref-1 inhibitors” (Indiana University Research and Technology Corporation, priority 2018, dated 2023) are described below.

This experiment has as its system HIF-regulated genes. The experiment in a line: RNA-Seq of HIF-regulated genes in HRECs. Conditions: 0.1 and 1 μM, 6 and 24 hours. The class given is cell-based, human. The method, then: Human retinal endothelial cells (HRECs) (Cell Systems, Inc. Kirkland, Wash.) were plated in 6-well plates and treated with 0.1 μM APX2009, 1 μM APX2009 or DMSO for 6 hours and 24 hours. Cells were washed once after treatment with PBS, collected and frozen. This process was repeated to collect treated cells in 4 different passages. RNA was extracted in 300 μL Trizol (Life Technologies, Carlsbad, Calif.) and flash frozen at −80° C. The SMARTer system (Clontech, Mountain View, Calif.) was used to generate cDNA from cells. The dscDNA quantity and quality was assessed using an Agilent Bioanalyzer (Agilent Technologies, Santa Clara, Calif., USA) with the High Sensitivity DNA Chip. […] The IUSM Genomics Facility prepared libraries using a Nextera kit (Illumina, San Diego, Calif.). DNAs were sequenced using the Illumina HiSeq 4000.

Turning to `CCC/C(=C\C1=C(OC)C(=O)c2ccccc2C1=O)C(=O)N(CC)CC` [APX2009, (2E)-2-[(3-methoxy-1,4-dioxo-1,4-dihydronaphthalen-2-yl)methylidene]-N,N-diethylpentanamide], the “expression of HIF regulated genes (RNA-Seq)” value is on record as “blocked HIF regulated genes in a concentration dependent manner”.
